Common to all, as to test: biochemical
Holding throughout (type): binding

Test [1] has as its target HLA-DR DRB1*1302 (DR13) (Homo sapiens, UniProt P01903+P01911, A100E/A169T/K41T/L162R/M171V/P40S/Q125H/Q178H/Q39Y/Q99D/R42S/S66N/T262R/V115G/W38E/Y61H). The conditions noted are these: DRBI *1302.
Test [2] concerns the target HLA-DR DRB1*0901 (DR9) (Homo sapiens, UniProt P01903+P01911, A100R/A103E/D57H/D86V/F55Y/F60I/F76Y/I96F/K127E/L162R/M171V/P40D/Q125H/Q99R/R33Q/R42F/S133A/S66N/T210M/V115G/W38K/Y107V/Y59G/Y89S). The conditions noted are these: DRB1 *0901.
In test [3] the target is HLA-DR DRB1*1101 (DR11) (Homo sapiens, UniProt P01903+P01911, A100R/A169T/A87E/I96F/K41T/L162R/M171V/P40S/Q125H/Q178H/Q39Y/Q99D/R42S/S66Y/T262R/V115G/W38E). The note with it: DRB1 *1101.
Test [4] addresses HLA-DR DRB1*0802 (DR8) (Homo sapiens, UniProt P01903+P01911, A100R/A103L/A169T/F76Y/H45Y/I96F/K41T/L162R/M171V/P40S/Q125H/Q178H/Q39Y/Q99D/R218S/R42G/S66Y/V115G/W38E).
Test [5] concerns the target HLA-DR DRB1*0701 (DR7) (Homo sapiens, UniProt P01903+P01911, A100R/A102G/A103Q/D57E/D86V/E43K/F76Y/K127E/L162R/M171V/P40G/Q125H/Q99D/R33Q/R42Y/R54Q/S133A/S66F/T210M/V115G/Y107V/Y59L/Y89S). The note with it: DRB1 *0701.
Test [6] concerns the target HLA-DR DRB4*0101 (DR53) (Homo sapiens, UniProt P01903+P13762, G164S). The conditions noted are these: DRB4 *0101.
In test [7] the target is HLA-DR DRB3*0101 (DR52) (Homo sapiens, UniProt P01903+P79483).
The target in test [8] is HLA-DR DRB1*1501 (DR15) (Homo sapiens, UniProt P01903+P01911). The note with it: DRBI *1501.
Test [9] deals with HLA-DR DRB5*0101 (DR51) (Homo sapiens, UniProt P01903+Q30154). The note with it: DRB5 *0101.
For test [10], the target named is HLA-DR DRB1*0401 (DR4) (Homo sapiens, UniProt P01903+P01911, A100K/A169T/F76Y/I96L/K127E/L162R/M171V/N62H/P40V/Q125Y/R42H/S133A/S149N/S66Y/V115G/V209L/W38E). The note with it: DRB1 *0401.
The target of test [11] is HLA-DR DRB1*0101 (DR1) (Homo sapiens, UniProt P01903+P01911, A100R/D57E/F55L/F60I/F76Y/I96L/L162R/M171V/P40L/Q125E/R42F/V115G/Y59C). The conditions noted are these: DRB1 *0101.

No end group written: not given here.

HLA-DR DRB1*1302 (DR13), sequence (P01903 26-254 limits assumed, other chains not shown): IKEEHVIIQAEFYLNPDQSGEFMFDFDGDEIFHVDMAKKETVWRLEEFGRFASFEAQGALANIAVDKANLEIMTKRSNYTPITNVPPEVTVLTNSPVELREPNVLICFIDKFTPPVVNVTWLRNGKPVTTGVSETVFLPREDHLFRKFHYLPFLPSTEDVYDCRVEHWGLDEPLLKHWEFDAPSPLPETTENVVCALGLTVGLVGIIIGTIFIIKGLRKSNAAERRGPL
HLA-DR DRB1*1101 (DR11), sequence (P01903 26-254 limits assumed, other chains not shown): as above

Consider `CC(C)C[C@H](NC(=O)[C@H](CCC(=O)O)NC(=O)[C@H](CCCCN)NC(=O)[C@H](C)NC(=O)[C@H](CC(C)C)NC(=O)[C@@H](NC(=O)[C@H](CO)NC(=O)[C@H](CCCNC(=N)N)NC(=O)[C@@H](N)CC(=O)O)C(C)C)C(=O)N[C@@H](CCCCN)C(=O)N[C@@H](Cc1ccccc1)C(=O)N[C@H](C(=O)N[C@H](C(=O)N[C@@H](CC(C)C)C(=O)N[C@H](C(=O)O)C(C)C)[C@@H](C)O)C(C)C`, for which the IC50 – broadly, the concentration at which inhibition is half-maximal – came to 4.41 µM in [1]; 4.72 µM in test [2]; 21 µM in test [3]; 15.8 µM in test [4]; 2.02 µM in test [5]; 0.053 µM in test [6]. For the same molecule, the IC50 in test [7] is above 14.4 µM; in test [8] it was 1.36 µM; in test [9], 2.22 µM.

Consider DFEVFFQRLGIASGR, for which the IC50 in test [1] amounted to 10.1 µM; in test [2], 2 µM; in [3], 0.128 µM; in test [4] it was 0.122 µM; in test [5], 21.9 µM; in test [10], 0.221 µM. For the same molecule, the IC50 in [6] was 0.0042 µM; in test [7] it was 30.7 µM; in [8] it was 10.2 µM; in [9], 3.56 µM.

As to GKVFRGNKVKNAQLA, the IC50 in test [1] was 0.046 µM; in test [2], 31.3 µM; in test [3], 0.894 µM; in [4], 4.12 µM; in test [5], 2.35 µM; in test [10], 1.09 µM. For the same molecule, the IC50 was found to be 7.88 µM in test [6], 7.59 µM in test [7], 0.612 µM in [11] and 3.37 µM in [8].

Consider `CC[C@H](C)[C@H](NC(=O)[C@@H](N)CC(C)C)C(=O)N[C@@H](CCSC)C(=O)N[C@@H](Cc1ccc(O)cc1)C(=O)N[C@@H](CO)C(=O)N[C@@H](C)C(=O)N[C@@H](Cc1c[nH]cn1)C(=O)N[C@@H](CC(=O)O)C(=O)N[C@H](C(=O)N[C@H](C(=O)N[C@H](C(=O)N[C@@H](CO)C(=O)NCC(=O)N[C@@H](CC(C)C)C(=O)N[C@@H](CCC(N)=O)C(=O)O)C(C)C)[C@@H](C)O)[C@@H](C)O`, for which the half-maximal inhibitory concentration (IC50) was 1.75 µM in [1]; 0.813 µM in test [2]; above 66.7 µM in [3]; 24.8 µM in [4]; 0.024 µM in test [10]; 4.38 µM in test [6]. Further, the IC50 in test [7] is 6.83 µM; in test [11], 4.5 µM; in test [8], 0.184 µM; in test [9], above 100 µM.

On to `CSCC[C@H](NC(=O)[C@H](CC(=O)O)NC(=O)[C@H](Cc1ccc(O)cc1)NC(=O)[C@H](CC(C)C)NC(=O)[C@@H]1CCCN1C(=O)[C@H](Cc1c[nH]cn1)NC(=O)[C@@H]1CCCN1)C(=O)N[C@@H](CO)C(=O)N[C@@H](CC(C)C)C(=O)N[C@@H](CC(C)C)C(=O)N[C@@H](CCCCN)C(=O)N[C@@H](CC(N)=O)C(=O)N[C@@H](CCCNC(=N)N)C(=O)N[C@@H](Cc1ccccc1)C(=O)N[C@@H](CC(C)C)C(=O)O`, for which the IC50 in test [1] is 11.7 µM; in [2], 12.8 µM; in test [3], above 50 µM; in test [4], 29.8 µM; in test [5], 10.7 µM; in [10], 20.8 µM. Further, the IC50 was 7.49 µM in [6], above 13.5 µM in test [7], 0.712 µM in [8] and 3.1 µM in test [9].

As for `CSCC[C@H](NC(=O)[C@H](CCC(=O)O)NC(=O)[C@H](CCC(N)=O)NC(=O)[C@@H]1CCCN1)C(=O)N[C@@H](CCCCN)C(=O)N[C@H](C(=O)N[C@@H](Cc1ccc(O)cc1)C(=O)N[C@@H](CO)C(=O)N[C@H](C(=O)N[C@@H](CO)C(=O)N[C@@H](Cc1ccccc1)C(=O)N[C@@H](CC(=O)O)C(=O)N[C@@H](CO)C(=O)N[C@@H](CC(C)C)C(=O)N[C@@H](Cc1ccccc1)C(=O)O)C(C)C)[C@@H](C)O`, the concentration for half-maximal inhibition (IC50) in test [1] is 24.7 µM; in test [2] it was 1.98 µM; in test [3] it was above 50 µM; in [4] it was above 98 µM; in [10] it was 3.02 µM; in test [6] it was 0.579 µM. For the same molecule, the IC50 in test [7] was 14.6 µM; in test [11], 15.1 µM; in test [8], 0.919 µM; in test [9], at least 100 µM.

For the origin of these results see US20060079453A1, “Hla binding peptides and their uses” (priority 2002, published 2006).
